Assay results from US5239084A, “Substituted aminoalkyl biphenyl compounds” (Hoffmann-La Roche Inc., priority 1990, dated 1993).
pIC50: −log10 of the molar value. Where “and” joins values, the source holds several entries; their conditions need not be identical. Equal entries are not always repeated. Structures can show the parent of a compound that is named as a salt.

Tests used:
[1] = acute toxicity, single oral administration to mice; conditions: mouse, in vivo
Experimental: The IC50 values were determined graphically and were given in μg of test substance per mL. Table I hereinafter contains IC50 values determined in the above test for representative members of the class of compound defined by formula I as well as concerning the acute toxicity in the case of single oral administration to mice (LD50 in mg/kg).

C. albicans 3153 = test: agar dilution method, C. albicans 3153; type: cell-based, Candida albicans
C. albicans B4 = test: agar dilution method, C. albicans B4; type: cell-based, Candida albicans
[2] = target: T1, 2,3-epoxysqualene-lanosterol cyclase (Candida albicans, UniProt Q04782); test: inhibition of 2,3-epoxysqualene-lanosterol cyclase from Candida albicans (cell-free extract, 14C-squalene epoxide); type: biochemical
T1 construct: there was obtained a cell-free extract (CFE) as the supernatant; endogenous in cells; host or cells: Candida albicans culture, protoplasts ruptured, cell-free extract (10000 g supernatant)
T1 sequence (Q04782 whole entry): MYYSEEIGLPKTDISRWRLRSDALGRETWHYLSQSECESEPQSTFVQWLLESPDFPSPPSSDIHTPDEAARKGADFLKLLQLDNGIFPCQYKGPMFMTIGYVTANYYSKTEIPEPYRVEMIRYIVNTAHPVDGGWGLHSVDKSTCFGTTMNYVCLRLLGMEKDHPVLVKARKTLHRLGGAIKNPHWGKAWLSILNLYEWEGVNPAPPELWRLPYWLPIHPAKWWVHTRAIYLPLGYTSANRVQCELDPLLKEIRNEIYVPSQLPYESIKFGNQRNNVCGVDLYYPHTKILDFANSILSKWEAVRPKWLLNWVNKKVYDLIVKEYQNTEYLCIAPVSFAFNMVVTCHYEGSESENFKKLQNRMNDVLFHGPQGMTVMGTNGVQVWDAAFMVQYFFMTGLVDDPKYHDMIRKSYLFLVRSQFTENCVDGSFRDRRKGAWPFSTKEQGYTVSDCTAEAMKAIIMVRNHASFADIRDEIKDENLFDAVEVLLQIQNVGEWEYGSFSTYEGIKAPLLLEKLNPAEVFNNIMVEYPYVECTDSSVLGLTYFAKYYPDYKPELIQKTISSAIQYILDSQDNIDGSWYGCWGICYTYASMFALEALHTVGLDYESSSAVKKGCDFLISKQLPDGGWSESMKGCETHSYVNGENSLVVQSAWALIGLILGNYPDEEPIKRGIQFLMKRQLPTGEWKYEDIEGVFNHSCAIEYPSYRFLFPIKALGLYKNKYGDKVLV

C. albicans H12 = test: agar dilution method, C. albicans H12; type: cell-based, Candida albicans
C. albicans 3152 = test: agar dilution method, C. albicans 3152; type: cell-based, Candida albicans
C. albicans B5 = test: agar dilution method, C. albicans B5; type: cell-based, Candida albicans
Candida albicans = test: agar dilution method, synergism with sterol biosynthesis inhibitors; type: cell-based; conditions: in combination with ketoconazole or terbinafine; synergistic when FIC <0.5
C. albicans H29 = test: agar dilution method, C. albicans H29; type: cell-based, Candida albicans
[3] = in combination with terbinafine
[4] = in combination with ketoconazole, hydrochloride
[5] = in combination with ketoconazole, synergistic when FIC <0.5, hydrochloride
[6] = in combination with terbinafine, synergistic when FIC <0.5

For `C=CCN(C)Cc1ccc(-c2ccc(C(=O)c3ccccc3)cc2)cc1` [Compound 14, 4'-[(allylmethylamino)methyl-4-biphenylylphenyl ketone hydrochloride], the LD50 [1] was over 4000 mg/kg, the MIC (C. albicans 3153; Candida albicans, 3153, 48 h, alone, 37° C., 2 days) was 1 µg/mL and the “MIC of compound in combination” value (C. albicans 3153; [3]) was 0.25 µg/mL. The FIC (C. albicans 3153; in combination with terbinafine, synergistic when FIC <0.5, hydrochloride) was 0.281 and 0.561, the MIC (C. albicans B4; Candida albicans, B4, 48 h, alone, 37° C., 2 days) was 2 µg/mL and the “MIC of compound in combination” value (C. albicans B4; [4]) was 0.12 µg/mL and 0.06 µg/mL. For the same compound, the FIC (C. albicans B4; [5]) was 0.078 and 0.040, the “MIC of compound in combination” value (C. albicans B4; [3]) was 1 µg/mL and the FIC (C. albicans B4; [6]) was 0.531. For the same compound, the pIC50 [2] was 7.28, the MIC (C. albicans H12; Candida albicans, H12, 48 h, alone, 37° C., 2 days) was 1 µg/mL and the “MIC of compound in combination” value (C. albicans H12; [4]) was 0.12 µg/mL and 0.06 µg/mL. The FIC (C. albicans H12; [5]) was 0.133 and 0.125, the “MIC of compound in combination” value (C. albicans H12; [3]) was 0.5 µg/mL and the FIC (C. albicans H12; [6]) was 0.516. The MIC (C. albicans 3152; Candida albicans, 48 h, alone, 37° C., 2 days) was 1 µg/mL, the “MIC of compound in combination” value (C. albicans 3152; [4]) was 0.06 µg/mL and 0.12 µg/mL and the FIC (C. albicans 3152; [5]) was 0.187 and 0.156. For the same compound, the MIC (C. albicans B5; Candida albicans, B5, 48 h, alone, 37° C., 2 days) was 1 µg/mL, the “MIC of compound in combination” value (C. albicans B5; [4]) was 0.06 µg/mL and 0.12 µg/mL and the FIC (C. albicans B5; [5]) was 0.125 and 0.25. For the same compound, the “MIC of compound in combination” value (C. albicans B5; [3]) was 0.25 µg/mL, the FIC (C. albicans B5; [6]) was 0.375 and the synergistic activity (Candida albicans) was “confirm the synergistic activity”. The MIC (C. albicans H29; Candida albicans, H29, 48 h, alone, 37° C., 2 days) was 1 µg/mL, the “MIC of compound in combination” value (C. albicans H29; [4]) was 0.06 µg/mL and 0.12 µg/mL and the “MIC of compound in combination” value (C. albicans H29; [3]) was 0.25 µg/mL. The FIC (C. albicans H29; [6]) was 0.375.
